Values joined by “and” are separate entries in the source; they are usually repeats but may differ in a detail not shown here. Equal values may be shown once.
Experiment: xn = mol fraction of the nth substance listed

COc1ccccc1 + CCCCO
viscosity [mPa·s]
Conditions	303 K	303.15 K	313 K	313.15 K	323 K	323.15 K
100 kPa, x1 = 0.121	1.831	–	1.255	–	1.031	–
100 kPa, x1 = 0.236	1.534	–	1.069	–	0.8722	–
100 kPa, x1 = 0.346	1.297	–	0.9238	–	0.7426	–
100 kPa, x1 = 0.452	1.128	–	0.8353	–	0.6858	–
100 kPa, x1 = 0.553	1.049	–	0.7844	–	0.6551	–
100 kPa, x1 = 0.65	0.9984	–	0.7302	–	0.6131	–
100 kPa, x1 = 0.742	0.9819	–	0.7012	–	0.5948	–
100 kPa, x1 = 0.832	0.9796	–	0.6884	–	0.5673	–
100 kPa, x1 = 0.918	0.9769	–	0.6724	–	0.5517	–
101.33 kPa, x1 = 0.1002	–	1.874	–	1.48	–	1.165
101.33 kPa, x1 = 0.2	–	1.523	–	1.254	–	0.989
101.33 kPa, x1 = 0.3001	–	1.359	–	1.075	–	0.899
101.33 kPa, x1 = 0.3998	–	1.197	–	0.975	–	0.806
101.33 kPa, x1 = 0.5	–	1.079	–	0.889	–	0.75
101.33 kPa, x1 = 0.6002	–	1.001	–	0.851	–	0.734
101.33 kPa, x1 = 0.7	–	0.952	–	0.805	–	0.721
101.33 kPa, x1 = 0.8003	–	0.929	–	0.788	–	0.709
101.33 kPa, x1 = 0.9	–	0.914	–	0.772	–	0.698

c1ccc2ccccc2c1 + CCCCO
viscosity
Conditions	303.15 K	308.15 K	313.15 K	318.15 K	323.15 K
101 kPa, x1 = 0.07958	2.076 mPa·s	1.848 mPa·s	1.633 mPa·s	1.461 mPa·s	1.312 mPa·s
101 kPa, x1 = 0.1174	–	1.796 mPa·s	1.601 mPa·s	1.427 mPa·s	1.28 mPa·s
101.33 kPa, x1 = 0.06489	–	–	1.67 mPa·s	–	1.33 mPa·s
101.33 kPa, x1 = 0.07958	2.076 mPa·s	1.848 mPa·s	1.633 mPa·s and 1.633 mPa·s	1.461 mPa·s	1.312 mPa·s and 1.312 mPa·s
101.33 kPa, x1 = 0.09537	–	–	1.624 mPa·s	–	1.3 mPa·s
101.33 kPa, x1 = 0.1174	–	–	1.601 mPa·s	–	1.28 mPa·s
101.33 kPa, x1 = 0.12	–	1.796 mPa·s	1.601 mPa·s	1.427 mPa·s	1.28 mPa·s
101.33 kPa, x1 = 0.1436	–	–	1.567 mPa·s	–	1.26 mPa·s

CC(C)=O + CCCCn1cc[n+](C)c1.F[B-](F)(F)F
Conditions	viscosity [mPa·s]
298.15 K, 101 kPa, x1 = 0.0973	77.6

C1CCOC1 + CCCO
viscosity [mPa·s], 101 kPa
Conditions	298.15 K	303 K	313 K
x1 = 0.0992	–	1.22	1.04
x1 = 0.1999	–	1.08	0.9
x1 = 0.2846	–	1	0.85
x1 = 0.39	–	0.91	0.77
x1 = 0.5	0.7603	–	–
x1 = 0.5146	–	0.8	0.69
x1 = 0.5918	–	0.73	0.65
x1 = 0.7012	–	0.64	0.57
x1 = 0.8028	–	0.57	0.51
x1 = 0.894	–	0.5	0.47
x1 = 0.9761	–	0.44	0.42

CC(=O)Oc1ccccc1C(=O)O + CCCO
viscosity [mPa·s], 101 kPa
Conditions	x1 = 0.00057	x1 = 0.000763	x1 = 0.000955	x1 = 0.00115	x1 = 0.00134	x1 = 0.00153	x1 = 0.00191
293.15 K	2.257	2.26	2.261	2.262	2.265	2.266	2.27
298.15 K	2.207	2.209	2.21	2.211	2.213	2.215	2.217
303.15 K	1.718	1.719	1.719	1.721	1.722	1.723	1.726
308.15 K	1.622	1.623	1.624	1.625	1.626	1.627	1.628
310.15 K	1.458	1.459	1.459	1.46	1.46	1.461	1.461
313.15 K	1.397	1.398	1.399	1.399	1.399	1.4	1.401
